Among the data in ChEMBL document CHEMBL6177995, “In Silico Discovery of Novel Potent Trace Amine-Associated Receptor TAAR1 Agonists as Promising Drug Candidates for the Treatment of Schizophrenia” (J Med Chem, 2025) are EC50 values, retold here.

In assay [1] the target is T1, Trace amine-associated receptor 1 (Homo sapiens, UniProt Q96RJ0).
T1 sequence (Q96RJ0 whole entry): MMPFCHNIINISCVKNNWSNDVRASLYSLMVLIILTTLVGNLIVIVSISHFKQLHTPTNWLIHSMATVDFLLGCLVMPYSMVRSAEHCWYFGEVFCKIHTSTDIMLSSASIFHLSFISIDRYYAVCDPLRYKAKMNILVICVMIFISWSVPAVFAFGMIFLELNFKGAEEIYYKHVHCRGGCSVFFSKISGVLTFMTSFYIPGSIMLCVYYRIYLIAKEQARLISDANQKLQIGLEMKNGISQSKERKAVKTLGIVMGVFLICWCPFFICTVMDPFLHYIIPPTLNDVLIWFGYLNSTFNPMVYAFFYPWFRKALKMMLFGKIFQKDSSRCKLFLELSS
The assay can be described thus: Agonist activity at TAAR1 (unknown origin) transfected in HEK293 cells co-transfected with GalphaS-Nluc, Gbeta1/3 and Ggamma1/2/9-mVenus assessed as GalphaS-Gbeta/gamma dissociation by BRET assay. Format: functional, cell-based. Background: BRET reads energy transfer from a luciferase to a nearby fluorophore.

Assay [2] has as its target T1, Trace amine-associated receptor 1. The assay can be described thus: Agonist activity at TAAR1 (unknown origin) transfected in HEK293 cells co-transfected with Galphaq-Nluc, Gbeta1/3 and Ggamma1/2/9-mVenus assessed as Galphaq-Gbeta/gamma dissociation by BRET assay. It counts as functional, cell-based.

For the molecule `O=S(=O)(NC[C@@H]1CCCN1)c1cccc(C(F)(F)F)c1`, the EC50 in assay [1] and in assay [2] was over 10 µM throughout. On to `O=S(=O)(NC[C@@H]1CCCN1)c1ccc2[nH]cnc2c1`, for which the EC50 (in general, the concentration giving half of the maximal effect) in assay [1] was found to be 0.0472 µM; in assay [2], 0.131 µM.

As to `Cc1ccc(S(=O)(=O)NC[C@@H]2CCCN2)cc1`, the 50% effective concentration (EC50) in assay [1] and in assay [2] was over 10 µM throughout. With `O=S(=O)(NC[C@@H]1CCCN1)c1ccccc1`, the EC50 in assay [1] and in assay [2] was over 10 µM each time.

Turning to `O=c1[nH]c2ccc(S(=O)(=O)NC[C@@H]3CCCN3)cc2[nH]1`, the EC50 in assay [1] and in assay [2] was over 10 µM each time. On to `COc1ccccc1S(=O)(=O)NC[C@@H]1CCCN1`, for which the concentration for a half-maximal effect (EC50) in assay [2] is 0.0078 µM.

Take `O=S(=O)(NC[C@@H]1CCCN1)c1cc(F)cc(F)c1`: the concentration for a half-maximal effect (EC50) in assay [1] and in assay [2] was over 10 µM in each case. Regarding `N[C@H]1CN(c2ncccc2C(F)(F)F)C[C@@H]1C1CC1`, in assay [2], the EC50 was 0.0912 µM. Same read-out and setting: then `O=c1[nH]c2ccc(S(=O)(=O)NC[C@@H]3CCCN3)cc2[nH]c1=O`, with 0.0055 µM. Regarding `O=c1[nH]c2cc(S(=O)(=O)NC[C@@H]3CCCN3)ccc2o1`, the EC50 in assay [1] was 0.158 µM. Turning to `CC(=O)Nc1ccc(S(=O)(=O)NC[C@@H]2CCCN2)cc1`, the EC50 in assay [2] was determined as 0.0416 µM. Turning to `COc1ccc(S(=O)(=O)NC[C@@H]2CCCN2)cc1`, the 50% effective concentration (EC50) in assay [2] is 0.0357 µM. For `COc1ccc2c(c1OC)C(=O)OC2Nc1ccccn1` (stereo not given), in assay [1], the concentration giving a half-maximal response (EC50) is 0.161 µM. In the case of `O=S(=O)(NC[C@@H]1CCCN1)c1ccc2ccccc2c1`, the EC50 in assay [2] came to 0.055 µM. As to `O=S(=O)(NC[C@@H]1CCCN1)c1ccccc1Br`, the EC50 in assay [1] and in assay [2] was over 10 µM each time. In the case of `N#Cc1cccc(S(=O)(=O)NC[C@@H]2CCCN2)c1`, the EC50 in assay [1] and in assay [2] was over 10 µM throughout. `O=S(=O)(NC[C@@H]1CCCN1)c1c(Cl)cccc1Cl`: the EC50 in assay [1] and in assay [2] was over 10 µM each time. `O=S(=O)(NC[C@@H]1CCCN1)c1ccc2c(c1)CCC2`: the EC50 in assay [1] and in assay [2] was over 10 µM each time. In the case of `CNc1ncc(S(C)(=O)=O)c(C2CCCNC2)n1` (stereo not given), the concentration for a half-maximal effect (EC50) in assay [1] is 0.0488 µM.

As for `O=S(=O)(NC[C@@H]1CCCN1)c1ccccc1C(F)(F)F`, the EC50 in assay [1] and in assay [2] was over 10 µM each time. On to `O=[N+]([O-])c1ccc(S(=O)(=O)NC[C@@H]2CCCN2)cc1`, for which the EC50 in assay [1] and in assay [2] was over 10 µM throughout.

In the case of `CC(C)CC(N)c1nc2ccccc2[nH]1` (stereo not given), the 50% effective concentration (EC50) in assay [1] stood at 0.1 µM. Consider `O=S(=O)(NC[C@@H]1CCCN1)c1cccc(Cl)c1`, for which the concentration giving a half-maximal response (EC50) in assay [1] and in assay [2] was over 10 µM each time.

Consider `O=S(=O)(NC[C@@H]1CCCN1)c1ccc(O)cc1`, for which the half-maximal effective concentration (EC50) in assay [1] and in assay [2] was over 10 µM throughout.

As to `CCC[C@H]1CN(C(=O)c2cc(Cl)cn2C)C[C@@H]1N`, the EC50 in assay [1] came out at 0.275 µM.

Take `Cc1cccc(S(=O)(=O)NC[C@@H]2CCCN2)c1`: the EC50 in assay [1] and in assay [2] was over 10 µM in each case. For `O=S(=O)(NC[C@@H]1CCCN1)c1ccccc1Cl`, the EC50 in assay [2] worked out at 0.0632 µM. Take `O=S(=O)(NC[C@@H]1CCCN1)c1ccc(C(F)(F)F)cc1`: the EC50 in assay [1] and in assay [2] was over 10 µM in each case. In the case of `O=[N+]([O-])c1ccccc1S(=O)(=O)NC[C@@H]1CCCN1`, the EC50 in assay [1] and in assay [2] was over 10 µM throughout. Turning to `O=S(=O)(NC[C@@H]1CCCN1)c1ccc(Cl)cc1`, the 50% effective concentration (EC50) in assay [1] and in assay [2] was over 10 µM throughout. `O=S(=O)(NC[C@@H]1CCCN1)c1ccc(Br)cc1`: the half-maximal effective concentration (EC50) in assay [1] and in assay [2] was over 10 µM in each case.

For `O=S(=O)(NC[C@@H]1CCCN1)c1ccc(Cl)s1`, the EC50 in assay [1] and in assay [2] was over 10 µM throughout.

As for `O=[N+]([O-])c1cccc(S(=O)(=O)NC[C@@H]2CCCN2)c1`, the EC50 in assay [1] and in assay [2] was over 10 µM each time. For `Cc1ccccc1S(=O)(=O)NC[C@@H]1CCCN1`, the concentration for a half-maximal effect (EC50) in assay [1] and in assay [2] was over 10 µM throughout. As to `N#Cc1ccc(S(=O)(=O)NC[C@@H]2CCCN2)cc1`, the EC50 in assay [1] and in assay [2] was over 10 µM each time. Regarding `O=S(=O)(NC[C@@H]1CCCN1)c1cccc(Br)c1`, the EC50 in assay [1] and in assay [2] was over 10 µM in each case.
